In US20150173371A1 (Dow AgroSciences LLC, priority 2013, published 2015):
“And” between values parts separate entries of the source, which are not always exact repeats. Equal entries are not always repeated. Where two headings read alike, the source gives them in different places.

Assays:
[1] = tested on: Conyza bonariensis (hairy fleabane, ERIBO); conditions: field trial
Protocol: (§1) Field trials were conducted under normal field conditions in multiple states in the United States, including but not limited to Alabama, Mississipi, South Carolina and Tennessee; and in Brazil, including but not limited to the states of Goias, Mato Grosso, Parana, Rio Grande do Sul, and Sao Paulo. Trials were established as RCB (randomized complete block) design, with 3-4 replicates per treatment, and plot sizes varying from 2-3 meters (m) wide by 4-8 m long. Treatments were applied with small plot backpack sprayers, using pressurized carbon dioxide (CO2) as propellant. Pressure varied from 22-40 PSI, with spray tips typically of a Flat Fan type applying water diluent at 150 L/ha. Boom sizes varied from 2-3 m in width. Treatments were applied to soybean, cotton or fallow crop land. Weed sizes varied, but all treatments were applied as post-emergence treatments to weeds from 2 leaf to 2 tiller growth stages varying from 2-15 inches (in) in height. No additional adjuvant was mixed with the treatments applied in the field
(§2) The treated plots and control plots were rated blind at various intervals after application.
(§3) Colby's equation was used to determine the herbicidal effects expected from the mixtures (Colby, S. R. Calculation of the synergistic and antagonistic response of herbicide combinations. Weeds 1967 15, 20-22). A t-test (alpha=0.05) between Colby predictions and observed combinations was used to test for significant differences indicating synergy or antagonism.
(§4) The following equation was used to calculate the expected activity of mixtures containing two active ingredients, A and B:
(§5) Expected=A+B−(A×B/100) • A=observed efficacy of active ingredient A at the same concentration as used in the mixture; • B=observed efficacy of active ingredient B at the same concentration as used in the mixture.

[2] = tested on: Conyza canadensis (horseweed, ERICA); conditions: field trial
Protocol: as §1, §2, §3, §4, §5

[3] = tested on: Spermacoce latifolia (broadleaf buttonweed, BOILF); test: Field trial, % visual weed control; type: in vivo
From the text: (§6) Boom sizes varied from 2-3 m in width.

[4] = tested on: Jacquemontia tamnifolia (smallflower morningglory, IAQTA); test: Field trial, % visual weed control; type: in vivo; conditions: 7DAA, 1120 g ae/ha alone
From the text: as §6

[5] = tested on: Brachiaria decumbens (Surinam grass, BRADC); test: Field trial, % visual weed control; type: in vivo; conditions: 12DAA, 720 g ae/ha alone
From the text: as §6

[6] = tested on: Sesbania exaltata (hemp sesbania, SEBEX); test: Field trial, % visual weed control; type: in vivo; conditions: 8DAA, 840 g ae/ha alone
From the text: as §6

[7] = tested on: Commelina benghalensis (hairy wandering Jew, COMBE); test: Field trial, % visual weed control; type: in vivo; conditions: 800 g ae/ha alone
From the text: as §6

[8] = tested on: Glycine max (soybean, glyphosate tolerant, GLXMA); test: Field trial, % visual weed control; type: in vivo
From the text: as §6

[9] = tested on: Raphanus raphanistrim (wild radish, RAPRA); test: Field trial, % visual weed control; type: in vivo; conditions: 6DAA, 800 g ae/ha alone
From the text: as §6

[10] = tested on: Ipomoea grandifolia (Corda-de-viola, IAQGR); test: Field trial, % visual weed control; type: in vivo; conditions: 17DAA, 800 g ae/ha alone
From the text: as §6

[11] = tested on: Tridax procumbens L (tridax daisy, TRQPR); test: Field trial, % visual weed control; type: in vivo; conditions: 16DAA, 800 g ae/ha alone
From the text: as §6

[12] = tested on: Ipomoea species (morningglory, IPOSS); test: Field trial, % visual weed control; type: in vivo; conditions: 8DAA, 840 g ae/ha alone
From the text: as §6

[13] = tested on: Euphorbia hirta (garden spurge, EPHHI); test: Field trial, % visual weed control; type: in vivo
From the text: as §6

[14] = tested on: Amaranthus palmeri (Palmer pigweed, AMAPA); test: Field trial, % visual weed control; type: in vivo
From the text: as §6

[15] = tested on: Euphorbia heterophylla (wild poinsettia, EPHHL); test: Field trial, % visual weed control; type: in vivo; conditions: 28DAA, 615 g ae/ha alone
From the text: as §6

[16] = tested on: Ambrosia artemisiifolia (common ragweed, AMBEL); test: Greenhouse trial, % visual weed control; type: in vivo; conditions: 14DAA, 105 g ae/ha alone
Protocol: (§7) Greenhouse trials were conducted under controlled environment greenhouse conditions, with plants grown in pots with Metromix soil and bottom watered. Treatments were applied with 3 replicates per treatment, using a track sprayer with 2 flat fan nozzles at 40 pounds per square inch (PSI). Water was used as the diluent at 140 liters per hectare (L/ha), with weeds being 2-4 leaf stage and approximately 3 inches in height at treatment.

[17] = tested on: Abutilon theophrasti (velvetleaf, ABUTH); test: Greenhouse trial, % visual weed control; type: in vivo; conditions: 14DAA
Protocol: as §7

[18] = tested on: Chenopodium album (common lambsquarter, CHEAL); test: Greenhouse trial, % visual weed control; type: in vivo; conditions: 14DAA
Protocol: as §7

[19] = tested on: Elymus repens (quackgrass, AGRRE); test: Greenhouse trial, % visual weed control; type: in vivo; conditions: 14DAA, 210 g ae/ha alone
Protocol: as §7

Compound: CNC.O=C(O)CNCP(=O)(O)O [Glyphosate-DMA, dimethylamine salt of N-(phosphonomethyl)glycine]
- Mean % Weed Control ([1]; 6DAA, 360 g ae/ha alone): 6.3%
- Mean % Weed Control ([1]; 6DAA, 720 g ae/ha alone): 5.0%
- Mean % Weed Control ([1]; 6DAA, 1080 g ae/ha alone): 12.5%
- Mean % Weed Control ([1]; 7DAA, 800 g ae/ha alone): 13.8% and 11.3%
- Mean % Weed Control ([1]; 10DAA, 800 g ae/ha alone): 41.3%
- Mean % Weed Control ([1]; 20DAA, 800 g ae/ha alone): 35.0%
- Mean % Weed Control ([1]; 21DAA, 800 g ae/ha alone): 36.3%
- Mean % Weed Control ([1]; 28DAA, 800 g ae/ha alone): 53.8% and 32.5% and 33.8%
- Mean % Weed Control ([1]; 31DAA, 800 g ae/ha alone): 38.8%
- Mean % Weed Control ([1]; 36DAA, 800 g ae/ha alone): 75.0% and 55.0%
- Mean % Weed Control ([2]; 10DAA, 960 g ae/ha alone): 10%
- Mean % Weed Control ([2]; 14DAA, 840 g ae/ha alone): 67.5%
- Mean % Weed Control ([2]; 15DAA, 960 g ae/ha alone): 15%
- Mean % Weed Control ([2]; 21DAA, 840 g ae/ha alone): 68.8%
- Mean % Weed Control ([2]; 28DAA, 840 g ae/ha alone): 78.3%
- Mean % Weed Control ([2]; 31DAA, 960 g ae/ha alone): 51.7%
- Mean % Weed Control ([3]; 18DAA, 800 g ae/ha alone): 47.5%
- Mean % Weed Control ([3]; 21DAA, 800 g ae/ha alone): 79.5%
- Mean % Weed Control ([3]; 24DAA, 480 g ae/ha alone): 51.7%
- Mean % Weed Control ([3]; 27DAA, 800 g ae/ha alone): 72.5%
- Mean % Weed Control ([3]; 28DAA, 800 g ae/ha alone): 77.5%
- Mean % Weed Control [4]: 86.3%
- Mean % Weed Control [5]: 73.8%
- Mean % Weed Control [6]: 53.8%
- Mean % Weed Control ([7]; 12DAA): 50.0%
- Mean % Weed Control ([7]; 15DAA): 62.5% and 43.8%
- Mean % Weed Control ([7]; 18DAA): 51.3%
- Mean % Weed Control ([7]; 27DAA): 70.0%
- Mean % Weed Control ([7]; 28DAA): 63.8%
- Mean % Weed Control ([7]; 35DAA): 67.5%
- Mean % Weed Control ([8]; 7DAA, 960 g ae/ha alone): 0.0%
- Mean % Weed Control ([8]; 16DAA, 480 g ae/ha alone): 0.0%
- Mean % Weed Control ([8]; 28DAA, 480 g ae/ha alone): 0.0%
- Mean % Weed Control ([8]; 28DAA, 960 g ae/ha alone): 0.0%
- Mean % Weed Control ([8]; 30DAA, 480 g ae/ha alone): 0.0%
- Mean % Weed Control [9]: 85.0%
- Mean % Weed Control [10]: 87.0%
- Mean % Weed Control [11]: 47.5%
- Mean % Weed Control [12]: 48.8%
- Mean % Weed Control ([13]; 7DAA, 800 g ae/ha alone): 43.8%
- Mean % Weed Control ([13]; 18DAA, 800 g ae/ha alone): 50.0%
- Mean % Weed Control ([13]; 21DAA, 800 g ae/ha alone): 41.3%
- Mean % Weed Control ([13]; 24DAA, 480 g ae/ha alone): 50.0%
- Mean % Weed Control ([14]; 7DAA, 840 g ae/ha alone): 52.5%
- Mean % Weed Control ([14]; 13DAA, 1120 g ae/ha alone): 60.0%
- Mean % Weed Control ([14]; 21DAA, 1120 g ae/ha alone): 61.3%
- Mean % Weed Control [15]: 68.3%
- Mean % Weed Control [16]: 26.7%
- Mean % Weed Control ([17]; 105 g ae/ha alone): 0.0%
- Mean % Weed Control ([17]; 210 g ae/ha alone): 3.3%
- Mean % Weed Control ([17]; 420 g ae/ha alone): 63.3%
- Mean % Weed Control ([17]; 840 g ae/ha alone): 85.0%
- Mean % Weed Control ([18]; 105 g ae/ha alone): 0.0%
- Mean % Weed Control ([18]; 210 g ae/ha alone): 21.7%
- Mean % Weed Control ([18]; 420 g ae/ha alone): 70.0%
- Mean % Weed Control [19]: 12.5%
